Test results published in US20240287172A1, “PROTEIN BINDERS TO IRHOM2 EPITOPES” (SCIRHOM GMBH, priority 2019, published 2024).

Tested on: PMA-induced release of endogenous IL-6R from human U-937 cells
Experiment: ELISA-based IL-6R release assay, PMA-induced, U-937 cells
Assay type: cell-based
Details: U-937, 1 h, PMA 62.5 ng/ml, Batimastat at 10 μM
Procedure: In brief, on day 1, Nunc black MaxiSorp® 96-well plates (Thermo Fisher Scientific, USA) were coated overnight with 100 μl per well of mouse anti-human IL-6R capture antibody (provided as part of the DuoSet ELISA kit) at 2 μg/ml TBS at 4° C. On day 2, the capture antibody solution was removed and MaxiSorp® plates were blocked with 300 μl per well of TBS, 1% BSA at room temperature for 1-2 hours. Meanwhile, 80,000 U-937 (European Collection of Authenticated Cell Cultures, UK) cells in 80 μl of normal growth medium were seeded in each well of Greiner CELLSTAR V-bottom 96-well plates (Thermo Fisher Scientific, USA) and pre-incubated with 20 μl per well of standard growth medium supplemented with Batimastat (BB94, Abcam, UK) at 50 μM as positive control (for a final concentration of 10 μM in the resulting 100 μl sample volume), mouse IgG antibody (Thermo Fisher Scientific, USA) at 5 μg/ml as isotype control (for a final […]) at 37° C., 5% CO2 for 30 minutes. In case of stimulation controls, 20 μl of standard growth medium without test articles were added. […] Using an infinite M1000 (Tecan Group, Switzerland) microplate reader, the fluorescence of each well was collected at an excitation wavelength of 435 nm and an emission wavelength of 555 nm. […]

Work on `CNC(=O)[C@H](Cc1ccccc1)NC(=O)[C@H](CC(C)C)[C@H](CSc1cccs1)C(=O)NO` [Batimastat] yielded an inhibition at 10 µM (murine (m) and chimeric (ch) antibodies and IgG at 3 μg/ml) of 91.6% and an inhibition at 10 µM (recombinant murine antibodies and IgG at 1 μg/ml) of 86.6%.
